Common to all, as to assay: NCI anticancer screen, dose series, 48 h
Experiment [1] relates to TK-10.
Experiment [2] relates to KM12.
Experiment [3] relates to SNB-75.
The subject of experiment [4] is RXF 393.
Experiment [5] deals with SR.
Experiment [6] deals with NCI-H460.
The subject of experiment [7] is SNB-19.
In experiment [8] the test system is LOX IMVI.
Experiment [9] has as its system UO-31.
Experiment [10] relates to SF-539.
Experiment [11] has as its system M14.
Experiment [12] relates to PC-3.
Experiment [13] concerns OVCAR-8.
Experiment [14] has as its system MDA-MB-231.
Experiment [15] deals with SN12C.
Experiment [16] relates to SK-MEL-2.
Experiment [17] relates to CAKI-1.
Experiment [18] relates to SK-MEL-28.
Experiment [19] deals with T47D.
The test system of experiment [20] is HCT-15.

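Step 1: Grow cells in 96-well plates. Step 2: Expose to compound for 48 hours at 5 concentrations. Step 3: Interpolate endpoints linearly; if unreached, use highest concentration. At the GI50, growth is halved.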 Activity calls are given as the source filed them. No stated cut-off is given here; in the data, active = GI50 up to about 1.1 µM and inactive = higher.

For `Cc1cc2cc3ccccc3cc2c(=O)[nH]1`, the GI50 in experiment [1], in experiment [2], in experiment [3], in experiment [4], in [5] and in experiment [6] was > 10 µM (inactive) throughout. Further, the GI50 in [7], in [8], in experiment [9], in experiment [10], in [11] and in experiment [12] was > 10 µM (inactive) in each case. The GI50 in experiment [13] is > 10 µM (inactive).
For the molecule `Nc1nc(N)c2c(-c3ccccc3)ccnc2n1`, the GI50 in experiment [1], in experiment [14], in [15], in experiment [4], in experiment [5] and in experiment [6] was > 100 µM (inactive) throughout. The GI50 in experiment [16], in [17], in [7], in experiment [8], in experiment [9] and in [12] was > 100 µM (inactive) each time. For the same molecule, in experiment [18], the GI50 was 40.5 µM (inactive).
Consider `C[C@@H]1CC[C@]2(C(=O)O)CC[C@]3(C)C(=CC[C@@H]4[C@@]5(C)CC[C@H](O)C(C)(C)[C@@H]5CC[C@]43C)[C@@H]2[C@]1(C)O` [POMOLIC ACID], for which the GI50 was 14.5 µM (inactive) in [1]; 12.4 µM (inactive) in experiment [2]; 16.4 µM (inactive) in [19]; 8.79 µM (inactive) in experiment [14]; 13.6 µM (inactive) in experiment [15]; 13.5 µM (inactive) in experiment [3]. Further, the GI50 was 13.9 µM (inactive) in [5]; 5.41 µM (inactive) in [6]; 17.1 µM (inactive) in experiment [16]; 14 µM (inactive) in [17]; 15.7 µM (inactive) in [7]; 15.7 µM (inactive) in [8]. Further, the GI50 was 11.3 µM (inactive) in [9]; 3.25 µM (inactive) in [10]; 2.98 µM (inactive) in [11]; 10.6 µM in experiment [20]; 20.2 µM (inactive) in experiment [13]; 13.6 µM (inactive) in experiment [18].
For the molecule `Cc1n2nc(N)sc2n[n+]1CC(=O)c1ccccc1`, the GI50 in experiment [1], in experiment [2], in experiment [19], in [15], in experiment [3] and in experiment [4] was > 100 µM (inactive) throughout. Besides, the GI50 in experiment [6], in experiment [16], in experiment [17], in experiment [7], in experiment [8] and in experiment [9] was > 100 µM (inactive) in each case. The GI50 in [10] was > 100 µM (inactive); in experiment [11], > 100 µM (inactive); in experiment [12], > 100 µM (inactive); in [20] it was greater than 100 µM; in experiment [13], > 100 µM (inactive); in experiment [18], > 100 µM (inactive).
For `CCOC(=O)c1c(C)[nH]c2c1c(CN(C)C)c(O)c1nc(C)c(C)nc12`, the GI50 in experiment [1] was 24.2 µM (inactive); in experiment [2], 28.2 µM (inactive); in experiment [19], 27 µM (inactive); in experiment [15] it was 12.6 µM (inactive); in experiment [3], 23.3 µM (inactive); in [4], 20.8 µM (inactive). The GI50 is 16.5 µM (inactive) in experiment [5]; 18.4 µM (inactive) in experiment [6]; 20.4 µM (inactive) in experiment [16]; 28.4 µM (inactive) in [17]; 31.1 µM (inactive) in [7]; 19.4 µM (inactive) in experiment [8]. Also, the GI50 in experiment [9] was 29.5 µM (inactive); in experiment [10], 18 µM (inactive); in experiment [11], 36.1 µM (inactive); in experiment [12], 19.5 µM (inactive); in [20] it was 26.4 µM; in experiment [13], 21.4 µM (inactive). The GI50 in experiment [18] is 25 µM (inactive).
As for `CC1=CC2=C(C#N)C(=O)OC2(C)C(c2ccccc2)C1` (stereo unspecified), the GI50 in experiment [1] is > 100 µM (inactive); in experiment [2], > 100 µM (inactive); in experiment [14], > 100 µM (inactive); in experiment [15] it was > 100 µM (inactive); in experiment [3], 16.2 µM (inactive); in experiment [6] it was > 100 µM (inactive). Besides, the GI50 in [16], in experiment [7], in experiment [8], in [9], in [10] and in [11] was > 100 µM (inactive) in each case. The GI50 is 68.5 µM (inactive) in [12], greater than 100 µM in experiment [20], > 100 µM (inactive) in [13] and > 100 µM (inactive) in experiment [18].
As for `COc1c2c(cc3c1C(=O)c1c(O)cccc1C3=O)CC(O)CC2` (stereo unspecified), the GI50 in experiment [1] is 50.5 µM (inactive); in experiment [2], > 100 µM (inactive); in experiment [19], 7.18 µM (inactive); in experiment [14] it was 21.6 µM (inactive); in experiment [15], > 100 µM (inactive); in experiment [3], 34.8 µM (inactive). Besides, the GI50 in experiment [6] is > 100 µM (inactive); in experiment [16] it was > 100 µM (inactive); in [17], > 100 µM (inactive); in experiment [7], 19.7 µM (inactive); in [8], > 100 µM (inactive); in [9] it was 56.9 µM (inactive). Also, the GI50 was 28.8 µM (inactive) in experiment [10]; 32 µM (inactive) in [11]; 67.9 µM (inactive) in [12]; 35.8 µM in experiment [20]; 40.5 µM (inactive) in experiment [13]; > 100 µM (inactive) in experiment [18].
For the molecule `CCC(=N\NC(N)=S)/C(C)=N/O`, the GI50 in experiment [1], in experiment [2], in experiment [19], in experiment [14], in experiment [15] and in experiment [4] was > 100 µM (inactive) in each case. The GI50 is > 100 µM (inactive) in experiment [6]; > 100 µM (inactive) in experiment [16]; > 100 µM (inactive) in [17]; > 100 µM (inactive) in experiment [7]; > 100 µM (inactive) in [8]; 62.1 µM (inactive) in [9]. Further, the GI50 in experiment [10] is > 100 µM (inactive); in [11] it was > 100 µM (inactive); in [12] it was > 100 µM (inactive); in [20] it was greater than 100 µM; in experiment [13], > 100 µM (inactive); in [18], > 100 µM (inactive).
On to `NCC1CCCCC1.O=C(O)NCC1CCCCC1`, for which the GI50 in experiment [1] is 30 µM (inactive); in [2], 12.1 µM (inactive); in [14], 25.8 µM (inactive); in [15], 12.5 µM (inactive); in [3], 13.7 µM (inactive); in experiment [4], 19.1 µM (inactive). The GI50 in [5] is 23.4 µM (inactive); in [6], 13.4 µM (inactive); in experiment [16], 14.1 µM (inactive); in [17], 28.2 µM (inactive); in [7], 47.3 µM (inactive); in [8], 15.3 µM (inactive). Besides, the GI50 in experiment [9] was 33.6 µM (inactive); in experiment [11], 36.6 µM (inactive); in [12], 17.7 µM (inactive); in experiment [20] it was 23.8 µM; in experiment [13], 13.2 µM (inactive); in experiment [18], 38 µM (inactive).
